Literature values, collected in US11826376B2, “Methods of treating heart failure with preserved ejection fraction employing dapagliflozin and compositions comprising the same” (AstraZeneca AB, priority 2018, dated 2023).

Legend:
human renal SGLT2 = human renal SGLT2 (Homo sapiens, UniProt P31639); conditions: background statement, no data
Sequence of human renal SGLT2 (P31639 whole entry): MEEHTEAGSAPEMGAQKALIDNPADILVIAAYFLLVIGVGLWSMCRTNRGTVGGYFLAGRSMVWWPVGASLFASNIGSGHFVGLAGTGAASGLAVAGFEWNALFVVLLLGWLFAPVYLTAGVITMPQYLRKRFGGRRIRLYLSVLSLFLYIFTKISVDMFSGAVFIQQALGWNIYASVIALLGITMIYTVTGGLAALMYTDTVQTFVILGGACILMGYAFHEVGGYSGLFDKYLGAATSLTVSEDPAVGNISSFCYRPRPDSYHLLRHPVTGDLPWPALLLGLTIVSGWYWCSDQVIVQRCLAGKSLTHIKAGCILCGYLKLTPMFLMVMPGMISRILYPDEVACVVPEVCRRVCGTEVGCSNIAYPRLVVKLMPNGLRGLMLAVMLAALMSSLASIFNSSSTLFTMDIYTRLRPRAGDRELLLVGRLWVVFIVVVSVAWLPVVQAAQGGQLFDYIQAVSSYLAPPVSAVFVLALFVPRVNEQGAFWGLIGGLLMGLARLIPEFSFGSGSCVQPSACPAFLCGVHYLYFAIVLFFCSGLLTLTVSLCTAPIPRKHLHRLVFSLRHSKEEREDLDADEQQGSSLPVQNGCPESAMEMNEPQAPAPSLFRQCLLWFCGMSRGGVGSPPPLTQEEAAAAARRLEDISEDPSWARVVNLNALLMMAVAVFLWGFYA

CCOc1ccc(Cc2cc([C@@H]3O[C@H](CO)[C@@H](O)[C@H](O)[C@H]3O)ccc2Cl)cc1 [Dapagliflozin, dapagliflozin]
albuminuria (Shigiyama et al. 2017): reduce | arterial stiffness (Shigiyama et al. 2017): reduces | blood uric acid (Shigiyama et al. 2017): reduce | systolic blood pressure (Shigiyama et al. 2017): reduce | weight (Shigiyama et al. 2017): reduce | HbA1c (background statement): effectively lowers | risk of inducing hypoglycaemia (background statement): low risk | inhibitor of human renal SGLT2 (human renal SGLT2): potent, highly selective
